According to patent publication US6777435B1, “Crystals of an oxyiminoalkanoic acid derivative and their use as antidiabetics” (Takeda Chemical Industries, Ltd., priority 1999, dated 2004):

Key:
Wistar fatty rats = test: Hypoglycemic and hypolipidemic actions in rats; format: in vivo; details: 1 mg/kg/day orally for seven days, percentage reduction compared with non-treatment group
Procedure: Crystals of the test compound were suspended in an amount of 1 mg/5 ml in a 0.5% methyl cellulose solution and compulsorily administered orally at the dose of 1 mg/kg/day to Wistar fatty rats (27-30 weeks old; five rats in a group), a model of obesity and type 2 diabetes mellitus, for seven days successively. During that period, diet and water were given freely. Blood was sampled from tail vein and measurement of the components was carried out using serum. Glucose was quantified using L-type Wako Glu2 (Wako Pure Chemicals) while triglyceride was quantified using L-type Wako TG.H (Wako Pure Chemical). The value of treatment group is represented as percentage reduction compared with the non-treatmet group.

KKA^γ mice = test: Hypoglycemic and hypolipidemic actions in mice; format: in vivo; details: 0.01% in powdery diet for four days, percentage reduction compared with non-treatment group
Procedure: Crystals of the test compound were mixed in a powdery diet (CE-2; Japan Clea) at a concentration of 0.01%, and freely given to KKA^γ mice (11 weeks old; five mice in a group), a model of obesity and type 2 diabetes mellitus, for four days. During that period, water was given freely. Blood was sampled from orbital venous plexus and measurement of the components was carried out using serum. Glucose was quantified using L-type Wako Glu2 (Wako Pure Chemicals) while triglyceride was quantified using Iatro-MA701 TG kit (Iatron Laboratories Inc.). The value of treatment group is represented as percentage reduction compared with the non-treatmet group.

| Compound | Hypoglycemic Action (%) (Wistar fatty rats; serum glucose) | Hypolipemic Action (%) (Wistar fatty rats; serum triglyceride) | Hypoglycemic Action (%) (KKA^γ mice; serum glucose) | Hypolipemic Action (%) (KKA^γ mice; serum triglyceride) |
| --- | --- | --- | --- | --- |
| Cc1oc(-c2ccccc2)nc1COc1ccc(CO/N=C(\CCC(=O)O)c2ccccc2)cc1 [Crystals of Example 1, (E)-4-[4-(5-methyl-2-phenyl-4-oxazolylmethoxy)benzyloxyimino]-4-phenylbutyric acid] | 60 | 85 | – | – |
| Cc1oc(-c2ccccc2)nc1COc1ccc(CO/N=C(\CCC(=O)O)c2ccccc2)cc1 [Crystals of Reference Example 4, (E)-4-[4-(5-methyl-2-phenyl-4-oxazolylmethoxy)benzyloxyimino]-4-phenylbutyric acid] | – | – | 42 | 61 |
